Measured values: PubChem BioAssay AID179 (DTP/NCI, 2004)
The source made the active and inactive calls.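 Rule for the calls: active = compounds giving half or more protection of infected cells from virus-caused growth loss, again on retest; inactive = the rest.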 *1 amine or outer side, *2 acyl side, *3 side chain or, on linkers, in order; H or OH if unused. Where a SMILES comes first, the peptide text is derived from it. Bridges are numbered along the chain shown (N, C = ends). Roman numbers before positions name the chains, in order. [ ]: non-standard residue; d: D form. The star is where a group is joined. ξ: configuration not given here. Actinocin(9to1) = Cc1c2oc3c(C)ccc(C(=O)[*:1])c3nc-2c(C(=O)[*:2])c(N)c1=O; Tyr(3-Br) = N[C@@H](Cc1ccc(O)c(Br)c1)C(=O)O; aThr = C[C@H](O)[C@H](N)C(=O)O; NMeV = CN[C@H](C(=O)O)C(C)C; Boc = CC(C)(C)OC(=O)*; Bz = O=C(c1ccccc1)*; ξC = NC(CS)C(=O)O; Sar = CNCC(=O)O

Test system: CEM cells HIV-1 protection, formazan growth assay
Assay: NCI AIDS Antiviral Assay
Details: for IC50: measured here: growth of uninfected CEM cells
Procedure, shortened: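 Protection of CEM cells against HIV-1 was scored from cell growth (soluble formazan) across five concentrations, with parallel uninfected cells. Lack of protection may reflect toxicity.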

Row | Structure (SMILES) | EC50 [µM] | IC50 [µM] | outcome
1 | Cc1c2oc3c(C)ccc(C(=O)N[C@@H]4C(=O)N[C@H](C(C)C)C(=O)N5CCC[C@H]5C(=O)N(C)CC(=O)N(C)[C@@H](C(C)C)C(=O)O[C@H]4C)c3nc-2c(C(=O)N[C@@H]2C(=O)N[C@H](C(C)C)C(=O)N3CCC[C@H]3C(=O)N(C)CC(=O)N(C)[C@@H](C(C)C)C(=O)O[C@H]2C)c(N)c1=O (I: [aThr][dV]P[Sar][NMeV] / II: [aThr][dV]P[Sar][NMeV]; ester I:1-I:C, II:1-II:C; linker I:N-II:N via Actinocin(9to1)) | > 0.302 | 9.55e-05 | 
2 | CCCCC(=O)NS(=NC(=O)c1ccccc1)C(Cl)(Cl)Cl (stereo unspecified) | > 200 | > 200 | 
3 | COC(=O)[C@H](Cc1ccc(O)c(Br)c1)NC(=O)[C@H](Cc1ccc(O)cc1)NC(=O)OC(C)(C)C (Boc-Tyr-[Tyr(3-Br)]-OMe) | > 200 | 34.7 | 
4 | COC(=O)C(CS)NC(=O)CNC(=O)c1ccccc1 (stereo unspecified) (Bz-Gly-[ξC]-OMe) | > 851 | 46.8 | 
5 | CCC[CH2][Sn]([CH2]CCC)([O]C(=O)C(OC)c1ccccc1)[O]C(=O)C(OC)c1ccccc1 (stereo unspecified) | > 6.76 | 0.182 | 
6 | COc1cc(C(C)c2cc3c(cc2OCCO)OCO3)cc(OC)c1OC (stereo unspecified) | > 347 | 0.447 | 
7 | O=c1[nH]c(Nc2ccccc2)nc2c1ncn2CC(O)CSCCO (stereo unspecified) | > 200 | > 200 | 
8 | Cc1c(CN2CCOCC2)c(CN2CCOCC2)c(C)n1-c1ccc(Cl)cn1 | > 200 | > 200 | 
9 | C/C1=C\C(=O)OC2CC(CCC(C)/C=C/CC1)OC(O)(C1CSC(=O)N1)C2 (stereo unspecified) | > 129 | 3.98 | 
10 | O=C(NC1C=Nc2ccc([N+](=O)[O-])cc2NC1=O)c1cc(Cl)cc([N+](=O)[O-])c1 (stereo unspecified) | > 447 | 155 | 
11 | CCCc1cc(=O)oc2c3c(c4c(c12)OC(C)(C)C=C4)O[C@H](C)[C@@H](C)[C@@H]3OC(C)=O | 1.7 | 26.9 | 
12 | C=C(CN(C)C)C(=O)c1cc(C)ccc1C | > 200 | 11.2 | 
13 | O=C(/C=C/c1ccccc1)Oc1ccc(C(=O)/C=C/c2ccccc2)cc1 | > 151 | 6.76 | 
14 | CC1S(=O)(=O)OCCCOS1(=O)=O | > 1070 | > 1070 | 
15 | O=C(CC(C(=O)c1ccsc1)c1cccs1)c1ccccc1 (stereo unspecified) | > 200 | 49 | 
16 | O=c1[nH]c(=O)n(C2OC(CO)C(O)C2O)c2ncncc12 (stereo unspecified) | > 200 | > 200 | 

Row | Structure (SMILES) | EC50 [µM] | IC50 [µM] | outcome
17 | CCOC(=O)C(C)c1nc2c(Cl)c3ncccc3cc2[nH]c1=O (stereo unspecified) | > 200 | > 200 | 
18 | Cc1cccc(NC(=O)Cc2nc3ccccc3s2)c1C | > 17.8 | > 17.8 | 
19 | O=C1C2c3[nH]c4ccccc4c3C3CCCCC3C2C(=O)N1c1ccccc1 (stereo unspecified) |  |  | inactive
20 | CC1=CC(=O)N(n2c(-c3ccccc3)n[nH]c2=O)C1=O | > 200 | > 200 | 
21 | Cc1cc(N(CCC#N)CCC#N)ccc1CC1N=C(c2ccccc2)OC1=O (stereo unspecified) | > 93.3 | > 93.3 | 
22 | CCCCCCCCCC(=O)OCC1OC(n2cc(F)c(=O)[nH]c2=O)C(N)C(OC(=O)CCCCCCCCC)C1O (stereo unspecified) | > 31.6 | > 31.6 | 
23 | CCOC(=O)c1nc2ccc([N+](=O)[O-])cc2c2c1CCO2 | > 63.1 | > 63.1 | 
24 | Cc1ccc(C2C(Cl)C(=O)N2NC(=O)c2ccc(N)cc2)cc1 (stereo unspecified) | > 200 | 13.5 | 
25 | CCCCC(=S)SSC(C)(C)C | > 200 | 55 | 
26 | C/C=C(\C1CC(=O)N2CCc3c([nH]c4ccccc34)C2C1)[Si](C)(C)C (stereo unspecified) | > 14.8 | > 14.8 | 
27 | O=S(=O)(O)c1ccc2cc(S(=O)(=O)O)ccc2c1 |  |  | inactive
28 | COc1cccc(/C=N/[N-]C(N)=O)c1[O-].[Co+2].[OH3+].c1ccncc1 | > 14.5 | > 14.5 | 
29 | CCCCNC(=O)CNC(=O)c1ccccc1SC(=O)CCCC[n+]1ccccc1 | > 200 | 9.33 | 
30 | O=c1cn[nH]c2cc(Cl)ccc12 | > 117 | > 117 | 
31 | CCCC/C(C)=N/NC(N)=S |  |  | inactive
32 | CCCC(C)C(N)=Nc1ccc(Cl)c(Cl)c1 (stereo unspecified) | > 200 | 45.7 | 
